The structures appear in SMILES notation.

Here are results for 99 compounds from ChEMBL document CHEMBL3507680, “University of Dundee, Gates Library screen for HepG2 cell viability”.

The nature of this data set: Human HepG2 cell viability assay in 384 well format. It is filed as toxicity, cell-based. Also noted: dose 125 nL, time 70.5 hour; concentration not given beside the values. The note with it: HepG2 cells, read-out: Inhibition.
Turning to `O=C(c1ccccc1)N1C[C@H]2CCC[C@@]2(COCc2ccncc2)C1`, the cytotoxicity at 70.5 h came out at 0.753%.

Turning to `c1nc(N2CCCC2)cnc1C1CCNCC1`, the cytotoxicity at 70.5 h was -6.46%.

Consider `Cc1nc2c(c(NC3CC3)n1)CCN(C(=O)CCO)CC2`, for which the cytotoxicity at 70.5 h is -4.49%.

`O=C([C@H]1CCCO1)N1CC[C@H](O)[C@@H]1Cc1ccncc1`: the cytotoxicity at 70.5 h came out at 1.55%.

On to `COc1ncccc1NC(=O)N1CCCC1c1cc(C)no1` (centres undefined), for which the cytotoxicity at 70.5 h is -16.3%.

As to `O=C(c1cnc(COc2ccccc2)nc1O)N1CCOCC1`, the cytotoxicity at 70.5 h was -5.87%.

As to `Cc1nc(CN2CCCC(Cn3cncn3)C2)nc2ccccc12` (centres undefined), the cytotoxicity at 70.5 h was found to be 19%.

For the compound `c1ccc(-c2cnc(CN(Cc3cccnc3)CC3CCCO3)o2)cc1` (centres undefined), the cytotoxicity at 70.5 h was -7.3%.

Consider `COc1ccccc1CN1CCC(c2nn(CCN)c3nccnc23)C1` (centres undefined), for which the cytotoxicity at 70.5 h is -0.747%.

As for `COc1ccccc1OC1CCN(C(=O)c2cnc(C)cc2C)CC1`, the cytotoxicity at 70.5 h is -5%.

In the case of `COC[C@H]1CC[C@@H]2[C@@H](CCN2Cc2ccccn2)O1`, the cytotoxicity at 70.5 h is 22.1%.

For the compound `CCc1nn(-c2cc(Oc3cc(C)ccc3C)nc(C)n2)c(N)c1C#N`, the cytotoxicity at 70.5 h was found to be 28.3%.

Take `O=C(NC1CCS(=O)(=O)C1)c1ccccc1SCc1cscn1` (centres undefined): the cytotoxicity at 70.5 h was -9.17%.

With `OC1CCN(C2CCN(Cc3cnc(-c4cccs4)nc3)CC2)CC1`, the cytotoxicity at 70.5 h was 12.5%.

With `COCc1ccccc1C(=O)NCCCN1CCCC1C(=O)N(C)C` (centres undefined), the cytotoxicity at 70.5 h was 7.28%.

As for `CC(=O)N1CCC1c1cc(NC2CCOCC2)nc(C)n1` (centres undefined), the cytotoxicity at 70.5 h was -0.759%.

For `CC(C)CN1CCc2[nH]nc(C(=O)N3CCCC3)c2C1`, the cytotoxicity at 70.5 h stood at 28.7%.

On to `Cc1cnn(CCNC(C)c2nnc(-c3cccc(Cl)c3)o2)c1` (centres undefined), for which the cytotoxicity at 70.5 h is -6.22%.

Regarding `CN(CCC(=O)N1CCc2sccc2C1)Cc1cnn(C)c1`, the cytotoxicity at 70.5 h is -2.72%.

Consider `Cc1cccc(C(=O)N2CCC3(CC2)CC(c2cnn(C)c2)CO3)c1` (centres undefined), for which the cytotoxicity at 70.5 h is -15%.

With `CC1(CO)COC(Cc2ccc(Cl)cc2)=N1` (centres undefined), the cytotoxicity at 70.5 h turned out to be 21%.

For `Cc1noc([C@@H]2CCO[C@@H]3CCN(C(=O)Cc4ccsc4)C[C@@H]32)n1`, the cytotoxicity at 70.5 h turned out to be 11.3%.

Regarding `Cc1ccc(C(=O)N2CCC3(CC2)CCN(Cc2ccccn2)C3=O)o1`, the cytotoxicity at 70.5 h was 26.4%.

For the compound `CCOC1CC2(CCN(C(=O)Cc3ccccn3)CC2)C1`, the cytotoxicity at 70.5 h is 18.1%.

Consider `CC(=O)NCCNC(=O)Nc1cc(C(C)(C)C)sc1C#N`, for which the cytotoxicity at 70.5 h was -1.29%.

In the case of `c1cnn(CCCO[C@@H]2CN(C3CCOCC3)[C@@H]3CCCO[C@@H]32)c1`, the cytotoxicity at 70.5 h is 4.39%.

`Cc1ccc2c(c1)CN(C(=O)c1ccccc1F)C(CN(C)C)CO2` (centres undefined): the cytotoxicity at 70.5 h is -24.7%.

With `Cc1cnc(CN2CCCC2c2noc(C(C)C)n2)cn1` (centres undefined), the cytotoxicity at 70.5 h is 1.04%.

Regarding `CCOCCCNC(=O)CN(c1ccc(C)c(C)c1)S(C)(=O)=O`, the cytotoxicity at 70.5 h was -9.65%.

For `Cc1nsc(NC(=O)NC2(CN3CCCCC3)CCCCC2)n1`, the cytotoxicity at 70.5 h was -9.47%.

For `CCc1cnc(C)nc1NC(C)C(=O)Nc1cc(F)ccc1C` (centres undefined), the cytotoxicity at 70.5 h was determined as 22.4%.

Consider `Cn1cc(C2CC(=O)NC23CCN(C(=O)Cc2ccccn2)CC3)cn1` (centres undefined), for which the cytotoxicity at 70.5 h is -5.18%.

On to `NC(=O)CSc1ccccc1NCc1nc(C2CC2)no1`, for which the cytotoxicity at 70.5 h was 15%.

Consider `CN(C(=O)c1cccc(C(=O)NCC(F)(F)F)c1)c1ccccc1`, for which the cytotoxicity at 70.5 h came out at 10.6%.

Turning to `COCCOc1ncccc1CNCc1c(C)nn(C)c1N(C)C`, the cytotoxicity at 70.5 h stood at 2.93%.

As to `Cc1nnc(NC(=O)N2CCC(N3CCCCC3)CC2)s1`, the cytotoxicity at 70.5 h was -8.18%.

As for `CNC(=O)[C@@]12CCO[C@@H]1CCN(Cc1ccc3c(c1)OCO3)C2`, the cytotoxicity at 70.5 h worked out at 9.37%.

As for `Cc1cccc(=O)n1CCCNc1nc(N(C)C)nc2c1CCNC2`, the cytotoxicity at 70.5 h is 18.8%.

As to `Cc1nc(N)cc(C2CN(C(=O)c3cscn3)CCO2)n1` (centres undefined), the cytotoxicity at 70.5 h is -10.9%.

As for `OCC1(NCc2cnc(-c3cccs3)s2)CCOCC1`, the cytotoxicity at 70.5 h is -6.15%.

For `Cc1ccc(CN2CCC3(CCCN(Cc4ccc(F)c(F)c4)C3)C2)o1` (centres undefined), the cytotoxicity at 70.5 h worked out at 0.359%.

Turning to `Cc1ccc(NC(=O)CSCc2cccnc2)nc1`, the cytotoxicity at 70.5 h was -1.37%.

For the compound `O[C@H]1CN(Cc2cc3ccccc3o2)CC[C@@]12CCCO2`, the cytotoxicity at 70.5 h is -8.98%.

As for `CCC(C)N1CCC(Oc2ccc(C(=O)NCCN(C)C)cc2Cl)CC1` (centres undefined), the cytotoxicity at 70.5 h was -5.39%.

Regarding `COCc1nn(C)c2c1CN(Cc1cnn(C)c1)CC2`, the cytotoxicity at 70.5 h is -11.4%.

For the compound `CCCC(C)(C)NC(=O)c1ccc(CC2CC(=O)NC2=O)cc1` (centres undefined), the cytotoxicity at 70.5 h is 0.713%.

Consider `O=C(NCCNC(=O)C1CCN(CC(F)(F)F)CC1)c1ccoc1`, for which the cytotoxicity at 70.5 h was -4.81%.

With `Cc1oc(C)c(C(=O)NCc2ccccc2S(=O)(=O)N(C)C)c1C`, the cytotoxicity at 70.5 h is -2.12%.

As to `CCS(=O)(=O)CC(=O)NC(C)c1ccc(F)cc1F` (centres undefined), the cytotoxicity at 70.5 h is -6.32%.

Consider `Cc1csc(C2(NCc3ccc(OCC(F)F)cc3)CCCC2)n1`, for which the cytotoxicity at 70.5 h was -5.7%.

For `Cc1cc(CNc2ccc(C(=O)N3CCCC(C)C3)cc2C)no1` (centres undefined), the cytotoxicity at 70.5 h was -16.5%.

Regarding `CCOC1CC2(CCN(Cc3cnn(C)c3)CC2)c2ccc(C)cc21` (centres undefined), the cytotoxicity at 70.5 h came out at 1.09%.

With `CCc1ccc(C(=O)Nc2cc(N3CCNC3=O)ccc2Cl)o1`, the cytotoxicity at 70.5 h is -5.46%.

Consider `CS(=O)(=O)NC1CCN(C(=O)NCc2ccccn2)CC1`, for which the cytotoxicity at 70.5 h is -2.65%.

`CN(C)[C@@H]1CN(C(=O)COc2cccc(F)c2)C[C@H]1O`: the cytotoxicity at 70.5 h was -9.79%.

Turning to `CC(=O)NCC(=O)N1CCCC2(CCC(=O)N(CCc3c[nH]cn3)C2)C1` (centres undefined), the cytotoxicity at 70.5 h stood at 10.1%.

With `CC(=O)NCC1CCC2(CCN(c3ncc(C)cn3)CC2)O1` (centres undefined), the cytotoxicity at 70.5 h is -3.04%.

Regarding `COc1ccc(C)cc1CN1CCCC1Cn1nc(C)nc1C` (centres undefined), the cytotoxicity at 70.5 h was -9.81%.

As to `COc1cccc(OC2CN(C(=O)CCn3cnc4ccccc43)C2)c1`, the cytotoxicity at 70.5 h amounted to 29.2%.

Consider `CC(C)c1nccn1CC1CCCN1Cc1nc2ccccc2n1C` (centres undefined), for which the cytotoxicity at 70.5 h was -10.4%.

In the case of `Cc1ccc(N2CCC3(CCCN3Cc3ccn(C)n3)CC2)nn1`, the cytotoxicity at 70.5 h was -2.31%.

`O=C(NC(CC(F)(F)F)c1ccc(Cl)cc1)c1nc(=O)[nH][nH]1` (centres undefined): the cytotoxicity at 70.5 h is 0.759%.

For the compound `Cc1ccc(CN2CCN(C(=O)c3ccc(CO)cc3)C(C)C2=O)cc1` (centres undefined), the cytotoxicity at 70.5 h is -17.6%.

With `Cc1nn(C)cc1CC(C#N)C(=O)Nc1cccc(O)c1` (centres undefined), the cytotoxicity at 70.5 h was -12.6%.

Regarding `Cc1cccc(CN2Cc3ncn(C)c3C(COCC(=O)N(C)C)C2)n1` (centres undefined), the cytotoxicity at 70.5 h was -3.93%.

For `COc1ccc(CNC[C@H]2COCc3nc4cccnc4n32)cc1`, the cytotoxicity at 70.5 h is -4.57%.

`Cc1nccn1CCC1CCN(c2ncccn2)CC1`: the cytotoxicity at 70.5 h was -6.44%.

For `CC(C)(C)c1ccc(C(=O)NCCCNC(=O)c2cnccn2)cc1`, the cytotoxicity at 70.5 h was -3.26%.

As to `CC(C)CSCCCNC(=O)C1CCOC1` (centres undefined), the cytotoxicity at 70.5 h is -5.76%.

Turning to `Cc1cccc(CC(=O)N2CCCC(N(C)CCCN(C)C)C2)c1` (centres undefined), the cytotoxicity at 70.5 h is -4.84%.

For `CCN1CC2(CC1=O)CN(Cc1cnn(C)c1)CCN(C(=O)C(C)C)C2` (centres undefined), the cytotoxicity at 70.5 h is -4.6%.

As for `Cc1ccc2c(c1)c(C)cc(=O)n2CCC(=O)O`, the cytotoxicity at 70.5 h is -6.14%.

Regarding `CC(=O)N1CCC2(CC1)c1ncc(-c3ccccc3)n1CCN2C(C)=O`, the cytotoxicity at 70.5 h is -5.58%.

As to `Cc1cnn(CC2CCCN2C(=O)c2ccccc2-n2cccn2)c1` (centres undefined), the cytotoxicity at 70.5 h is -12.6%.

Regarding `CC(=O)N1CCCC(C(=O)NCCc2ccc(F)c(Br)c2)C1` (centres undefined), the cytotoxicity at 70.5 h was -9.08%.

Take `c1csc(CN2C[C@H](OCC3CC3)[C@H]3COC[C@H]32)n1`: the cytotoxicity at 70.5 h is -3.74%.

`CCNC(=O)[C@@H]1C[C@@H](NC(=O)c2ccc(C#N)cc2)CN1CCCSC`: the cytotoxicity at 70.5 h is 17.5%.

Turning to `COc1ccc2c(C(=O)N(C)C)cc(-c3cnc(N)nc3)nc2c1`, the cytotoxicity at 70.5 h was -3.44%.

On to `CC(C)N1CCCn2nc(C(=O)NCc3ccccc3F)cc2C1`, for which the cytotoxicity at 70.5 h was -5.27%.

As to `O=C(CCOc1ccc(Cl)cc1)NCCCn1cccn1`, the cytotoxicity at 70.5 h came out at 23.1%.

As for `CCc1c(C(=O)N2CCCC(N(C)C)C2)cnn1C(C)(C)C` (centres undefined), the cytotoxicity at 70.5 h is -4.41%.

On to `COc1ccc(CC(=O)Nc2ccc3ncn(C)c(=O)c3c2)cc1`, for which the cytotoxicity at 70.5 h was -2.82%.

On to `c1cc(-c2ccc3nc(C4CCN(CC5CC5)CC4)nn3c2)ccn1`, for which the cytotoxicity at 70.5 h amounted to 3.64%.

In the case of `FC(F)(F)c1n[nH]c2c1CN(Cc1cn3ccccc3n1)CC2`, the cytotoxicity at 70.5 h was -6.32%.

On to `Cc1cc(NC(=O)N(CC2CCOC2)C2CC2)no1` (centres undefined), for which the cytotoxicity at 70.5 h was -11.9%.

With `CC(C)Cn1cncc1-c1nc2c([nH]1)CC(C)(C)CNC2=O`, the cytotoxicity at 70.5 h came out at 4.26%.

Consider `CC(NCc1ccc(OCC(N)=O)cc1)c1ccc(Cl)cc1Cl` (centres undefined), for which the cytotoxicity at 70.5 h was -5.48%.

As for `Cc1ncsc1CN1CC[C@H]2OCC[C@@]2(C(=O)NC2CC2)C1`, the cytotoxicity at 70.5 h is -2.8%.

Take `Cc1nn(C)c2cnn(Cc3ccc(C(=O)NC4CC4)o3)c12`: the cytotoxicity at 70.5 h was -1.57%.

Take `CC(C)C(=O)Nc1ccc2c(c1)ncn2CC(=O)NCCN(C)C`: the cytotoxicity at 70.5 h is -7%.

For `c1c(CN2CCCC2)nc2n1CCN(C1CCOCC1)C2`, the cytotoxicity at 70.5 h was -0.565%.

As to `CN1CCOC(CNCc2ccccc2OCc2ccccn2)C1` (centres undefined), the cytotoxicity at 70.5 h was -9.16%.

For `O=C(Cc1csc(-c2nnc[nH]2)n1)N1CCCC1Cn1cccn1` (centres undefined), the cytotoxicity at 70.5 h is -8.18%.

With `CC1(C)CN(C(=O)c2ccccc2-n2cncn2)CC1(C)O` (centres undefined), the cytotoxicity at 70.5 h turned out to be 18.2%.

On to `COc1ccc(CN2CCn3cc(CNC(=O)CC4CC4)nc3C2)cc1`, for which the cytotoxicity at 70.5 h is -8.89%.

Consider `CCC[C@H]1CN(S(C)(=O)=O)C[C@@H]1NC(=O)CCOCC`, for which the cytotoxicity at 70.5 h is -2.88%.

Turning to `COc1ccc(N2CCC(NC(=O)c3sccc3C)CC2)cc1`, the cytotoxicity at 70.5 h was 18.3%.

As to `CN(Cc1ccccc1)CC(C)(C)NC(=O)c1cnns1`, the cytotoxicity at 70.5 h was -0.0616%.

Regarding `COCCN1CCC(NC(=O)Nc2cccc(F)c2)C1` (centres undefined), the cytotoxicity at 70.5 h is -0.696%.
